In this test the target is Alpha-glucosidase MAL12 (Saccharomyces cerevisiae (strain ATCC 204508 / S288c), UniProt P53341). Description: α-Glucosidase Inhibition Assay.
Sequence of Alpha-glucosidase MAL12 (P53341 whole entry): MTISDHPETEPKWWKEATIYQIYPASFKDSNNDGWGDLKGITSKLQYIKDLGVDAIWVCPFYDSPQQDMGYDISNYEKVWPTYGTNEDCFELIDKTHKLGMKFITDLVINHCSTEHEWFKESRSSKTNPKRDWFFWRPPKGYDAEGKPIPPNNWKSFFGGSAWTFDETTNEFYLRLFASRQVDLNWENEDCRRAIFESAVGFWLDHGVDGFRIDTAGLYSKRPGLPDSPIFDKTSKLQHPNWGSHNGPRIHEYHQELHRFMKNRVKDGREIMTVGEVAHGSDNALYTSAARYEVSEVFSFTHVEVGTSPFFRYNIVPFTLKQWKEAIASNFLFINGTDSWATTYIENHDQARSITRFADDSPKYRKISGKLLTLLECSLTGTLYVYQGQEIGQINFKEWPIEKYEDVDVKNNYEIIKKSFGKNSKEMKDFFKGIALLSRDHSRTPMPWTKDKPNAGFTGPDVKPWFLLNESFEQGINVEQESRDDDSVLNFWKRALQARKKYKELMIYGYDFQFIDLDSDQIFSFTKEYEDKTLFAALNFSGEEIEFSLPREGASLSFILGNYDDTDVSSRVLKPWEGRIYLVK
Procedure: Afterwards, 10 μL of 0.5 mM p-nitrophenyl-a-d-glucopyranoside (code No. N1377 fromSigma Inc) was added to instigate the reaction. Later 30 min incubation at 37 °C, yellow coloured p-nitrophenol was formed and the absorbance was again recorded at 400 nm to see the difference. These tests were performed in triplicates and suitable dilutions of samples were made for screening.
In turn, `O=c1oc2ccccc2cc1-c1nn(-c2ccccc2)cc1-c1nc(-c2ccccc2)c(-c2ccccc2)[nH]1` [3-(4-(4,5-diphenyl-1H-imidazol-2-yl)-1-phenyl-1H-pyrazol-3-yl)-2H-chromen-2-one (2j)] showed a concentration for half-maximal inhibition (IC50) of 2.78 µM. Under `Brc1ccc(-c2nn(-c3ccccc3)cc2-c2nc(-c3ccccc3)c(-c3ccccc3)[nH]2)cc1` [3-(4-Bromophenyl)-4-(4,5-diphenyl-1H-imidazol-2-yl)-1-phenyl-1H-pyrazole (2c)] stands 12 µM; under `Clc1ccc(-c2nn(-c3ccccc3)cc2-c2nc(-c3ccccc3)c(-c3ccccc3)[nH]2)cc1` [3-(4-Chlorophenyl)-4-(4,5-diphenyl-1H-imidazol-2-yl)-1-phenyl-1H-pyrazole (2b)], 13.2 µM.

For the molecule `c1ccc(-c2ccc(-c3nn(-c4ccccc4)cc3-c3nc(-c4ccccc4)c(-c4ccccc4)[nH]3)cc2)cc1` [3-([1,1'-Biphenyl]-4-yl)-4-(4,5-diphenyl-1H-imidazol-2-yl)-1-phenyl-1H-pyrazole (2g)], the half-maximal inhibitory concentration (IC50) was found to be 17.5 µM. Consider `c1ccc(-c2nn(-c3ccccc3)cc2-c2nc(-c3ccccc3)c(-c3ccccc3)[nH]2)cc1` [4-(4,5-Diphenyl-1H-imidazol-2-yl)-1,3-diphenyl-1H-pyrazole (2a)], for which it took 22.2 µM to reach half-maximal inhibition (IC50).

For the molecule `O=[N+]([O-])c1ccc(-n2cc(-c3nc(-c4ccccc4)c(-c4ccccc4)[nH]3)c(-c3ccccc3)n2)cc1` [4-(4,5-Diphenyl-1H-imidazol-2-yl)-1-(4-nitrophenyl)-3-phenyl-1H-pyrazole (2h)], half-maximal inhibition (IC50) required 7.81 µM. With `Cc1nn(-c2ccc([N+](=O)[O-])cc2)c(C)c1-c1nc(-c2ccccc2)c(-c2ccccc2)[nH]1` [4-(4,5-Diphenyl-1H-imidazol-2-yl)-3,5-dimethyl-1-(4-nitrophenyl)-1H-pyrazole (2i)] the figure was 22 µM; with `O=[N+]([O-])c1cccc(-c2nn(-c3ccccc3)cc2-c2nc(-c3ccccc3)c(-c3ccccc3)[nH]2)c1` [4-(4,5-Diphenyl-1H-imidazol-2-yl)-3-(3-nitrophenyl)-1-phenyl-1H-pyrazole (2f)], 12.8 µM.

`COc1ccc(-c2nn(-c3ccccc3)cc2-c2nc(-c3ccccc3)c(-c3ccccc3)[nH]2)cc1` [4-(4,5-Diphenyl-1H-imidazol-2-yl)-3-(4-methoxyphenyl)-1-phenyl-1H-pyrazole (2e)] returned an IC50 of 24 µM. With `O=[N+]([O-])c1ccc(-c2nn(-c3ccccc3)cc2-c2nc(-c3ccccc3)c(-c3ccccc3)[nH]2)cc1` [4-(4,5-Diphenyl-1H-imidazol-2-yl)-3-(4-nitrophenyl)-1-phenyl-1H-pyrazole (2d)] the figure was 20.7 µM. Under `O=c1oc2ccc(Br)cc2cc1-c1nn(-c2ccccc2)cc1-c1nc(-c2ccccc2)c(-c2ccccc2)[nH]1` [6-Bromo-3-(4-(4,5-diphenyl-1H-imidazol-2-yl)-1-phenyl-1Hpyrazol-3-yl)-2H-chromen 2-one (2k)] stands 2.95 µM.

The values are drawn from BindingDB's records for doi:10.1016/j.bioorg.2017.01.017 (University of The Punjab, 2017).
